Measured values as given in the supplement of paper PMC10307832.

Legend:
Assay in all cases: relative viability (nuclei count vs DMSO), 5 days (fraction); higher = more cells survive
H3255 = test system: H3255
Method in brief: (§1)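 Five library-drug doses in √10 steps were combined with a fixed anchor-drug dose, or a single drug was given alone, by pin tool to lung cancer cell lines in 1536-well plates the day after seeding. Nuclei were stained and counted after 5 days. Relative viability is the nuclei count in treated wells over that in vehicle wells, taken as the median of duplicate plates.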

LU99A = test system: LU99A
Method in brief: as §1

NCI-H23 = test system: NCI-H23
Method in brief: as §1

NCI-H1563 = test system: NCI-H1563
Method in brief: as §1

SW 1573 = test system: SW 1573
Method in brief: as §1

PC-14 = test system: PC-14
Method in brief: as §1

LCLC-103H = test system: LCLC-103H
Method in brief: as §1

COR-L23 = test system: COR-L23
Method in brief: as §1

NCI-H2228 = test system: NCI-H2228
Method in brief: as §1

NCI-H1793 = test system: NCI-H1793
Method in brief: as §1

PC-3 [JPC-3] = test system: PC-3 [JPC-3]
Method in brief: as §1

SW 900 = test system: SW 900
Method in brief: as §1

LCLC-97TM1 = test system: LCLC-97TM1
Method in brief: as §1

HCC-44 = test system: HCC-44
Method in brief: as §1

LK-2 = test system: LK-2
Method in brief: as §1

NCI-H1650 = test system: NCI-H1650
Method in brief: as §1

NCI-H2347 = test system: NCI-H2347
Method in brief: as §1

A-427 = test system: A-427
Method in brief: as §1

201T = test system: 201T
Method in brief: as §1

NCI-H596 = test system: NCI-H596
Method in brief: as §1

LC-2-ad = test system: LC-2-ad
Method in brief: as §1

NCI-H460 = test system: NCI-H460
Method in brief: as §1

Work on `CCN(CC)CCCCNc1ncc2cc(-c3cc(OC)cc(OC)c3)c(NC(=O)NC(C)(C)C)nc2n1` + Nc1nc2[nH]cc(CCc3ccc(C(=O)N[C@@H](CCC(=O)O)C(=O)O)cc3)c2c(=O)[nH]1 [Pemetrexed] (partner 0.2 µM) yielded a relative viability (H3255; first compound 0.01 µM) of 0.626, a relative viability (H3255; first compound 0.03162 µM) of 0.568 and a relative viability (H3255; first compound 0.1 µM) of 0.615. The relative viability (H3255; first compound 0.3162 µM) was 0.632, the relative viability (H3255; first compound 1 µM) was 0.513 and the relative viability (LU99A; first compound 0.01 µM) was 0.206. For the same compound, the relative viability (LU99A; first compound 0.03162 µM) was 0.177, the relative viability (LU99A; first compound 0.1 µM) was 0.214 and the relative viability (LU99A; first compound 0.3162 µM) was 0.177. The relative viability (LU99A; first compound 1 µM) was 0.195, the relative viability (NCI-H23; first compound 0.01 µM) was 0.666 and the relative viability (NCI-H23; first compound 0.03162 µM) was 0.566. For the same compound, the relative viability (NCI-H23; first compound 0.1 µM) was 0.854, the relative viability (NCI-H23; first compound 0.3162 µM) was 0.778 and the relative viability (NCI-H23; first compound 1 µM) was 0.646. The relative viability (NCI-H1563; first compound 0.01 µM) was 0.72, the relative viability (NCI-H1563; first compound 0.03162 µM) was 0.601 and the relative viability (NCI-H1563; first compound 0.1 µM) was 1.02. The relative viability (NCI-H1563; first compound 0.3162 µM) was 0.737, the relative viability (NCI-H1563; first compound 1 µM) was 0.633 and the relative viability (SW 1573; first compound 0.01 µM) was 0.858. For the same compound, the relative viability (SW 1573; first compound 0.03162 µM) was 0.843, the relative viability (SW 1573; first compound 0.1 µM) was 1.08 and the relative viability (SW 1573; first compound 0.3162 µM) was 0.944. The relative viability (SW 1573; first compound 1 µM) was 0.832, the relative viability (PC-14; first compound 0.01 µM) was 0.123 and the relative viability (PC-14; first compound 0.03162 µM) was 0.117. It also gave a relative viability (PC-14; first compound 0.1 µM) of 0.184, a relative viability (PC-14; first compound 0.3162 µM) of 0.139 and a relative viability (PC-14; first compound 1 µM) of 0.141. It also gave a relative viability (LCLC-103H; first compound 0.01 µM) of 0.444, a relative viability (LCLC-103H; first compound 0.03162 µM) of 0.488 and a relative viability (LCLC-103H; first compound 0.1 µM) of 0.485. The relative viability (LCLC-103H; first compound 0.3162 µM) was 0.457, the relative viability (LCLC-103H; first compound 1 µM) was 0.533 and the relative viability (COR-L23; first compound 0.01 µM) was 0.208. For the same compound, the relative viability (COR-L23; first compound 0.03162 µM) was 0.188, the relative viability (COR-L23; first compound 0.1 µM) was 0.192 and the relative viability (COR-L23; first compound 0.3162 µM) was 0.196. The relative viability (COR-L23; first compound 1 µM) was 0.192, the relative viability (NCI-H2228; first compound 0.01 µM) was 0.318 and the relative viability (NCI-H2228; first compound 0.03162 µM) was 0.344. The relative viability (NCI-H2228; first compound 0.1 µM) was 0.418, the relative viability (NCI-H2228; first compound 0.3162 µM) was 0.326 and the relative viability (NCI-H2228; first compound 1 µM) was 0.335. The relative viability (NCI-H1793; first compound 0.01 µM) was 0.88, the relative viability (NCI-H1793; first compound 0.03162 µM) was 0.815 and the relative viability (NCI-H1793; first compound 0.1 µM) was 0.988. It also gave a relative viability (NCI-H1793; first compound 0.3162 µM) of 0.949, a relative viability (NCI-H1793; first compound 1 µM) of 0.548 and a relative viability (PC-3 [JPC-3]; first compound 0.03162 µM) of 1. The relative viability (PC-3 [JPC-3]; first compound 0.1 µM) was 1.15, the relative viability (PC-3 [JPC-3]; first compound 0.3162 µM) was 1.7 and the relative viability (PC-3 [JPC-3]; first compound 1 µM) was 0.883. The relative viability (SW 900; first compound 0.01 µM) was 0.529, the relative viability (SW 900; first compound 0.03162 µM) was 0.461 and the relative viability (SW 900; first compound 0.1 µM) was 0.517. For the same compound, the relative viability (SW 900; first compound 0.3162 µM) was 0.509, the relative viability (SW 900; first compound 1 µM) was 0.309 and the relative viability (LCLC-97TM1; first compound 0.01 µM) was 0.174. The relative viability (LCLC-97TM1; first compound 0.03162 µM) was 0.185, the relative viability (LCLC-97TM1; first compound 0.1 µM) was 0.174 and the relative viability (LCLC-97TM1; first compound 0.3162 µM) was 0.159. The relative viability (LCLC-97TM1; first compound 1 µM) was 0.189, the relative viability (HCC-44; first compound 0.01 µM) was 0.682 and the relative viability (HCC-44; first compound 0.03162 µM) was 0.705. For the same compound, the relative viability (HCC-44; first compound 0.1 µM) was 0.634, the relative viability (HCC-44; first compound 0.3162 µM) was 0.625 and the relative viability (HCC-44; first compound 1 µM) was 0.721. It also gave a relative viability (LK-2; first compound 0.01 µM) of 0.267, a relative viability (LK-2; first compound 0.03162 µM) of 0.272 and a relative viability (LK-2; first compound 0.1 µM) of 0.273. For the same compound, the relative viability (LK-2; first compound 0.3162 µM) was 0.149, the relative viability (LK-2; first compound 1 µM) was 0.145 and the relative viability (NCI-H1650; first compound 0.01 µM) was 0.398. For the same compound, the relative viability (NCI-H1650; first compound 0.03162 µM) was 0.377, the relative viability (NCI-H1650; first compound 0.1 µM) was 0.352 and the relative viability (NCI-H1650; first compound 0.3162 µM) was 0.326. It also gave a relative viability (NCI-H1650; first compound 1 µM) of 0.344, a relative viability (NCI-H2347; first compound 0.01 µM) of 0.419 and a relative viability (NCI-H2347; first compound 0.03162 µM) of 0.555. It also gave a relative viability (NCI-H2347; first compound 0.1 µM) of 0.423, a relative viability (NCI-H2347; first compound 0.3162 µM) of 0.412 and a relative viability (NCI-H2347; first compound 1 µM) of 0.382. The relative viability (A-427; first compound 0.01 µM) was 1.01, the relative viability (A-427; first compound 0.03162 µM) was 1 and the relative viability (A-427; first compound 0.1 µM) was 1.06. For the same compound, the relative viability (A-427; first compound 0.3162 µM) was 1.23, the relative viability (A-427; first compound 1 µM) was 0.965 and the relative viability (201T; first compound 0.01 µM) was 0.351. For the same compound, the relative viability (201T; first compound 0.03162 µM) was 0.315, the relative viability (201T; first compound 0.1 µM) was 0.331 and the relative viability (201T; first compound 0.3162 µM) was 0.349. It also gave a relative viability (201T; first compound 1 µM) of 0.313, a relative viability (NCI-H596; first compound 0.01 µM) of 0.453 and a relative viability (NCI-H596; first compound 0.03162 µM) of 0.496. For the same compound, the relative viability (NCI-H596; first compound 0.1 µM) was 0.488, the relative viability (NCI-H596; first compound 0.3162 µM) was 0.584 and the relative viability (NCI-H596; first compound 1 µM) was 0.443. The relative viability (LC-2-ad; first compound 0.01 µM) was 0.293, the relative viability (LC-2-ad; first compound 0.03162 µM) was 0.267 and the relative viability (LC-2-ad; first compound 0.1 µM) was 0.272. It also gave a relative viability (LC-2-ad; first compound 0.3162 µM) of 0.264, a relative viability (LC-2-ad; first compound 1 µM) of 0.271 and a relative viability (NCI-H460; first compound 0.01 µM) of 0.0558. The relative viability (NCI-H460; first compound 0.03162 µM) was 0.0576, the relative viability (NCI-H460; first compound 0.1 µM) was 0.0567 and the relative viability (NCI-H460; first compound 0.3162 µM) was 0.056. For the same compound, the relative viability (NCI-H460; first compound 1 µM) was 0.0563.
